In publication PMC13621370, “Targeting Telomere Shelterin Protein TPP1 with Elbasvir: Induction of Autophagy and Suppression of Esophageal Cancer Tumorigenesis” (Anti-Cancer Agents in Medicinal Chemistry, 2025):

Molecular target: T1, telomere shelterin protein TPP1 (Homo sapiens, UniProt Q96AP0)
T1 construct: gene ACD; endogenous protein in RIPA lysate of KYSE150 and TE1 cells; not purified; 2I46 used only for docking
T1 sequence (Q96AP0 1-458): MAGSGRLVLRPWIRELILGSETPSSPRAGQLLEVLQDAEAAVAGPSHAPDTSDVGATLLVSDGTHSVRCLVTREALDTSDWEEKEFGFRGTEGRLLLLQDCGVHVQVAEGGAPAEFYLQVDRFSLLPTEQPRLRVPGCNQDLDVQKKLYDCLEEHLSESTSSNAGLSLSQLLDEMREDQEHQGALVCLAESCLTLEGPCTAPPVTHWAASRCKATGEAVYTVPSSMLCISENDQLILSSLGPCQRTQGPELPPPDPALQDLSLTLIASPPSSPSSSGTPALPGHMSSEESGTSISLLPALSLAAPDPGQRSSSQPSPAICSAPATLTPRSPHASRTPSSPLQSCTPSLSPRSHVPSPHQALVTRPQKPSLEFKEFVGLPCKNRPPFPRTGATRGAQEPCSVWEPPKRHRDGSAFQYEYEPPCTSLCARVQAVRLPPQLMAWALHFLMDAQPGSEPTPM
Experiment: DARTS (pronase protection, Western blot of TPP1)
Assay type: biochemical
Conditions: 400 uM Elbasvir, cell lysate, ambient temperature, 2 h, then pronase 20 min

How did the “DARTS (pronase protection, Western blot of TPP1)” value turn out when `COC(=O)N[C@H](C(=O)N1CCC[C@H]1c1ncc(-c2ccc3c(c2)O[C@@H](c2ccccc2)n2c-3cc3cc(-c4cnc([C@@H]5CCCN5C(=O)[C@@H](NC(=O)OC)C(C)C)[nH]4)ccc32)[nH]1)C(C)C` [Elbasvir] was run?
Its value is “the presence of Elbasvir increased the stability of TPP1 protein, protecting it from proteolysis”.
